molecular target: T1, Prolyl endopeptidase (Rattus norvegicus, UniProt O70196); assay: Inhibition of POP in Sprague-Dawley rat brain homogenates; type: tissue-based
T1 sequence (O70196 whole entry): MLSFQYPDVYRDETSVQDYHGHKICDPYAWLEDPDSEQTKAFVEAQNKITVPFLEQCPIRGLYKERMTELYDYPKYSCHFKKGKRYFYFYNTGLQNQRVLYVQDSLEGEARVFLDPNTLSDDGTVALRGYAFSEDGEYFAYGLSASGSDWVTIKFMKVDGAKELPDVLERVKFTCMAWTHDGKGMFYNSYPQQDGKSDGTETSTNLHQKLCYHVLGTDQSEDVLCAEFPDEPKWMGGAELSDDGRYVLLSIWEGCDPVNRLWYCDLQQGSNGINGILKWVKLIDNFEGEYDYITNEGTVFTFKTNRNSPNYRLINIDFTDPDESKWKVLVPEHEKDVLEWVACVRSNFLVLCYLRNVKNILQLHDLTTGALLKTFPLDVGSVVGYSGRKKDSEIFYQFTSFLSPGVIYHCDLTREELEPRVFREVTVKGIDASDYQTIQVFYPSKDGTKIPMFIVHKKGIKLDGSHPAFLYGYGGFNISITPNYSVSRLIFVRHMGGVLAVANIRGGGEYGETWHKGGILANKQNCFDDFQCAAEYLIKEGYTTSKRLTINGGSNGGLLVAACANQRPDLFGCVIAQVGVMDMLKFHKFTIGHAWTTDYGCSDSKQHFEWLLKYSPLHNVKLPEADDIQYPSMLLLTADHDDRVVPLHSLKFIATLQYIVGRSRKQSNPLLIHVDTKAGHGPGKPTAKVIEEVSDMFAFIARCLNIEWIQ

IC50 [nM] | SMILES
3 | O=C([C@@H]1CCCN1C(=O)CCN1C(=O)c2ccccc2C1=O)N1CCCC1
48 | CCCCCCCC(=O)N1CCC[C@H]1C(=O)N1CCCC1
40 | O=C([C@@H]1CCCN1C(=O)CCCN1C(=O)c2ccccc2C1=O)N1CCCC1
59 | O=C([C@@H]1CCCN1C(=O)CCCn1c(=O)c(-c2ccccc2)nc2ccccc21)N1CCCC1

From ChEMBL document CHEMBL1140217, “Prolyl oligopeptidase inhibition by N-acyl-pro-pyrrolidine-type molecules” (J Med Chem, 2008)
